In US8987286B2, “Substituted pyrimido[1,2-b]indazoles and their use as modulators of the Pi3K/Akt pathway” (Bayer Intellectual Property GmbH, priority 2010, dated 2015):
Where a name gives a salt, the structure may show the parent alone.

These molecules were tested against Akt1 (Homo sapiens (Human), UniProt P31749) (assay: Akt1 kinase assay (Akt1 TR-FRET assay)). Conditions: His-tagged human recombinant full-length Akt1, 10 μM ATP, 1 μM peptide substrate.
Chain of Akt1 (P31749 whole entry): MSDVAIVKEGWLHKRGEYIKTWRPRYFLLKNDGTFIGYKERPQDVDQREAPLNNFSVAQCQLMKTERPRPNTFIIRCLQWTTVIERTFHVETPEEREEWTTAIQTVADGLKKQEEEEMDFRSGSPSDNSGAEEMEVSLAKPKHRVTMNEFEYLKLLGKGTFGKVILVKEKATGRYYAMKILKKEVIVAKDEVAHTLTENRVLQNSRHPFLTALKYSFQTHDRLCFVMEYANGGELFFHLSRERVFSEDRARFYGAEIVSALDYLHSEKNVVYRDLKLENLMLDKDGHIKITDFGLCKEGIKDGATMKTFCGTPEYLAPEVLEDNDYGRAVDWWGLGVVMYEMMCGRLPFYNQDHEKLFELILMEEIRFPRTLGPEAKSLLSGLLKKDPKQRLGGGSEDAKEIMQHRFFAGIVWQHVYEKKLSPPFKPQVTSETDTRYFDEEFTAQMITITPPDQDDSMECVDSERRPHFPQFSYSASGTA
Type: biochemical
Source text: Biological Assay 1.0: Akt1 Kinase Assay
Akt1 inhibitory activity of compounds of the present invention was quantified employing the Akt1 TR-FRET assay as described in the following paragraphs.
His-tagged human recombinant kinase full-length Akt1 expressed in insect cells was purchased form Invitrogen (part number PV 3599). As substrate for the kinase reaction the biotinylated peptide biotin-Ahx-KKLNRTLSFAEPG (C-terminus in amide form) was used which can be purchased e.g. from the company Biosynthan GmbH (Berlin-Buch, Germany).
For the assay 50 nl of a 100 fold concentrated solution of the test compound in DMSO was pipetted into a black low volume 384 well microtiter plate (Greiner Bio-One, Frickenhausen, Germany), 2 μl of a solution of Akt1 in assay buffer [50 mM TRIS/HCl pH 7.5, 5 mM MgCl2, 1 mM dithiothreitol, 0.02% (v/v) Triton X-100 (Sigma)] were added and the mixture was incubated for 15 min at 22° C. to allow pre-binding of the test compounds to the enzyme before the start of the kinase reaction. Then the kinase reaction was started by the addition of 3 μl of a solution of adenosine-tri-phosphate (ATP, 16.7 μM=>final conc. in the 5 μl assay volume is 10 μM) and substrate (1.67 μM=>final conc. in the 5 μl assay volume is 1 μM) in assay buffer and the resulting mixture was incubated for a reaction time of 60 min at 22° C. The concentration of Akt1 in the assay was adjusted depending of the activity of the enzyme lot and was chosen appropriate to have the assay in the linear range, typical enzyme concentrations were in the range of about 0.05 ng/μl (final conc. in the 5 μl assay volume).
The reaction was stopped by the addition of 5 μl of a solution of HTRF detection reagents (200 nM streptavidine-XL665 [Cisbio] and 1.5 nM anti-phosho-Serine antibody [Millipore, cat. #35-001] and 0.75 nM LANCE Eu-W 1024 labeled anti-mouse IgG antibody [Perkin Elmer]) in an aqueous EDTA-solution (100 mM EDTA, 0.1% (w/v) bovine serum albumin in 50 mM HEPES/NaOH pH 7.5).
The resulting mixture was incubated 1 h at 22° C. to allow the binding of the biotinylated phosphorylated peptide to the streptavidine-XL665 and the antibodies. Subsequently the amount of phosphorylated substrate was evaluated by measurement of the resonance energy transfer from the anti-mouse-IgG-Eu-Chelate to the streptavidine-XL665. Therefore, the fluorescence emissions at 620 nm and 665 nm after excitation at 350 nm was measured in a HTRF reader, e.g. a Rubystar (BMG Labtechnologies, Offenburg, Germany) or a Viewlux (Perkin-Elmer). The ratio of the emissions at 665 nm and at […] was taken as the measure for the amount of phosphorylated substrate. The data were normalised (enzyme reaction without inhibitor=0% inhibition, all other assay components but no enzyme=100% inhibition).
`NC1(c2ccc(-c3nc4c5cc(F)ccc5nn4c(NC4CC4)c3-c3ccccc3)cc2)CCC1` [Example 2, 2-[4-(1-Aminocyclobutyl)phenyl]-N-cyclopropyl-9-fluoro-3-phenylpyrimido[1,2-b]indazol-4-amine] showed an IC50 of 528 nM.
In the case of `CNc1c(-c2ccccc2)c(-c2ccc(C3(N)CCC3)cc2)nc2c3cc(F)ccc3nn12` [Example 3, 2-[4-(1-Aminocyclobutyl)phenyl]-9-fluoro-N-methyl-3-phenylpyrimido[1,2-b]indazol-4-amine], the IC50 is reported as 2630 nM.
`N#Cc1cccc(-c2ccc3c(c2)nn2cc(-c4ccccc4)c(-c4ccc(C5(N)CCC5)cc4)nc32)c1` [Example 4, 3-{2-[4-(1-Aminocyclobutyl)phenyl]-3-phenylpyrimido[1,2-b]indazol-8-yl}-benzonitrile] gave an IC50 of 140 nM.
Work on `CS(=O)(=O)c1ccc(-c2ccc3c(c2)nn2cc(-c4ccccc4)c(-c4ccc(C5(N)CCC5)cc4)nc32)cc1` [Example 4.1, 1-{4-[8-(4-Mesylphenyl)-3-phenylpyrimido[1,2-b]indazol-2-yl]-phenyl}cyclobutylamine] yielded an IC50 of 59 nM.
Work on `NC1(c2ccc(-c3nc4c5ccc(-c6ccc(F)cc6)cc5nn4cc3-c3ccccc3)cc2)CCC1` [Example 4.2, 1-{4-[8-(4-Fluorophenyl)-3-phenylpyrimido[1,2-b]indazol-2-yl]-phenyl}cyclobutylamine] yielded an IC50 of 229 nM.
For `NC1(c2ccc(-c3nc4c5ccc(Br)cc5nn4cc3-c3ccccc3)cc2)CCC1` [Example 4.3, 1-[4-(8-Bromo-3-phenylpyrimido[1,2-b]indazol-2-yl)phenyl]cyclobutylamine hydrochloride], the IC50 was 87 nM.
`NC1(c2ccc(-c3nc4c5ccc(-c6ccc(F)c(CO)c6)cc5nn4cc3-c3ccccc3)cc2)CCC1` [Example 4.4, 5-{2-[4-(1-Aminocyclobutyl)phenyl]-3-phenylpyrimido[1,2-b]indazol-8-yl}-2-fluorobenzyl alcohol] gave an IC50 of 43 nM.
Work on `NC1(c2ccc(-c3nc4c5ccc(-c6ccc(F)c(O)c6)cc5nn4cc3-c3ccccc3)cc2)CCC1` [Example 4.5, 5-{2-[4-(1-Aminocyclobutyl)phenyl]-3-phenylpyrimido[1,2-b]indazol-8-yl}-2-fluorophenol formiate] yielded an IC50 of 35 nM.
For `COc1cc(-c2ccc3c(c2)nn2cc(-c4ccccc4)c(-c4ccc(C5(N)CCC5)cc4)nc32)ccc1F` [Example 4.6, 1-{4-[8-(4-Fluoro-3-methoxyphenyl)-3-phenylpyrimido[1,2-b]indazol-2-yl]phenyl}cyclobutylamine], the IC50 was 458 nM.
`CS(=O)(=O)c1cccc(-c2ccc3c(c2)nn2cc(-c4ccccc4)c(-c4ccc(C5(N)CCC5)cc4)nc32)c1` [Example 4.7, 1-{4-[8-(3-Mesylphenyl)-3-phenylpyrimido[1,2-b]indazol-2-yl]phenyl}cyclobutylamine formiate] showed an IC50 of 25 nM.
`COC(=O)c1ccc2c(c1)nn1cc(-c3ccccc3)c(-c3ccc(C4(N)CCC4)cc3)nc21` [Example 4.8, 2-[4-(1-Aminocyclobutyl)phenyl]-3-phenylpyrimido[1,2-b]indazole-8-carboxylic acid methyl ester] showed an IC50 of 111 nM.
With `NC(=O)c1cccc(-c2ccc3c(c2)nn2cc(-c4ccccc4)c(-c4ccc(C5(N)CCC5)cc4)nc32)c1` [Example 4.9, 3-{2-[4-(1-Aminocyclobutyl)phenyl]-3-phenylpyrimido[1,2-b]indazol-8-yl}benzamide] the IC50 was 16 nM.
Work on `NC(=O)c1ccc(-c2ccc3c(c2)nn2cc(-c4ccccc4)c(-c4ccc(C5(N)CCC5)cc4)nc32)cc1` [Example 4.10, 4-{2-[4-(1-Aminocyclobutyl)phenyl]-3-phenylpyrimido[1,2-b]indazol-8-yl}benzamide] yielded an IC50 of 21 nM.
In the case of `NC1(c2ccc(-c3nc4c5ccc(-c6cn[nH]c6)cc5nn4cc3-c3ccccc3)cc2)CCC1` [Example 4.11, 1-{4-[3-Phenyl-8-(1H-pyrazol-4-yl)pyrimido[1,2-b]indazol-2-yl]-phenyl}cyclobutylamine], the IC50 is reported as 17 nM.
For `NC1(c2ccc(-c3nc4c5ccc(-c6ccc(O)nc6)cc5nn4cc3-c3ccccc3)cc2)CCC1` [Example 4.12, 5-{2-[4-(1-Aminocyclobutyl)phenyl]3-phenylpyrimido[1,2-b]indazol-8-yl}pyridin-2-ol], the IC50 was 14 nM.
Work on `COC(=O)c1ccc(-c2ccc3c(c2)nn2cc(-c4ccccc4)c(-c4ccc(C5(N)CCC5)cc4)nc32)cn1` [Example 4.13, 5-{2-[4-(1-Aminocyclobutyl)phenyl]-3-phenylpyrimido[1,2-b]indazol-8-yl}pyridine-2-carboxylic acid methyl ester] yielded an IC50 of 23 nM.
`Cc1ccc(-c2ccc3nn4cc(-c5ccccc5)c(-c5ccc(C6(N)CCC6)cc5)nc4c3c2)cc1` [Example 5.1, 1-[4-(3-Phenyl-9-p-tolylpyrimido[1,2-b]indazol-2-yl)phenyl]cyclobutylamine] showed an IC50 of 120 nM.
Work on `COC(=O)c1cccc(-c2ccc3nn4cc(-c5ccccc5)c(-c5ccc(C6(N)CCC6)cc5)nc4c3c2)c1` [Example 5.2, 3-{2-[4-(1-Aminocyclobutyl)phenyl]-3-phenylpyrimido[1,2-b]indazol-9-yl}benzoic acid methyl ester] yielded an IC50 of 130 nM.
`NC1(c2ccc(-c3nc4c5cc(Br)ccc5nn4cc3-c3ccccc3)cc2)CCC1` [Example 6.1, 1-[4-(9-Bromo-3-phenylpyrimido[1,2-b]indazol-2-yl)phenyl]cyclobutylamine] showed an IC50 of 41 nM.
With `N#Cc1ccc(-c2ccc3nn4cc(-c5ccccc5)c(-c5ccc(C6(N)CCC6)cc5)nc4c3c2)cc1` [Example 6.2, 4-{2-[4-(1-Aminocyclobutyl)phenyl]-3-phenylpyrimido[1,2-b]indazol-9-yl}benzonitrile formiate] the IC50 was 97 nM.
`NC1(c2ccc(-c3nc4c5cc(-c6cccc(CO)c6)ccc5nn4cc3-c3ccccc3)cc2)CCC1` [Example 6.3, 3-{2-[4-(1-Aminocyclobutyl)phenyl]-3-phenylpyrimido[1,2-b]indazol-9-yl}benzyl alcohol formiate] was tested, and the IC50 was 16 nM.
With `NC1(c2ccc(-c3nc4c5cc(-c6ccc(CO)cc6)ccc5nn4cc3-c3ccccc3)cc2)CCC1` [Example 6.4, 4-{2-[4-(1-Aminocyclobutyl)phenyl]-3-phenylpyrimido[1,2-b]indazol-9-yl}benzyl alcohol formiate] the IC50 was 18 nM.
`NC1(c2ccc(-c3nc4c5cc(-c6ccc(S(N)(=O)=O)cc6)ccc5nn4cc3-c3ccccc3)cc2)CCC1` [Example 6.5, 4-{2-[4-(1-Aminocyclobutyl)phenyl]-3-phenylpyrimido[1,2-b]indazol-9-yl}benzenesulfonamide formiate] showed an IC50 of 31 nM.
In the case of `NC1(c2ccc(-c3nc4c5cc(-c6ccc(F)c(CO)c6)ccc5nn4cc3-c3ccccc3)cc2)CCC1` [Example 6.6, 5-{2-[4-(1-Aminocyclobutyl)phenyl]-3-phenylpyrimido[1,2-b]indazol-9-yl}-2-fluorobenzyl alcohol], the IC50 is reported as 10 nM.
`NC1(c2ccc(-c3nc4c5cc(-c6cn[nH]c6)ccc5nn4cc3-c3ccccc3)cc2)CCC1` [Example 6.7, 1-{4-[3-Phenyl-9-(1H-pyrazol-4-yl)pyrimido[1,2-b]indazol-2-yl]phenyl}-cyclobutylamine] gave an IC50 of 19 nM.
`NC1(c2ccc(-c3nc4c5cccc(Br)c5nn4cc3-c3ccccc3)cc2)CCC1` [Example 8.1, 1-[4-(7-Bromo-3-phenylpyrimido[1,2-b]indazol-2-yl)phenyl]cyclobutylamine hydrochloride] gave an IC50 of 170 nM.
`NC1(c2ccc(-c3nc4c5cccc(-c6ccc(F)cc6)c5nn4cc3-c3ccccc3)cc2)CCC1` [Example 8.2, 1-{4-[7-(4-Fluorophenyl)-3-phenylpyrimido[1,2-b]indazol-2-yl]-phenyl}cyclobutylamine] gave an IC50 of 5600 nM.
Molecule `NC1(c2ccc(-c3nc4c5cccc(-c6ccc(CO)cc6)c5nn4cc3-c3ccccc3)cc2)CCC1` [Example 8.3, 4-{2-[4-(1-Aminocyclobutyl)phenyl]-3-phenylpyrimido[1,2-b]indazol-7-yl}benzyl alcohol formiate] has an IC50 of 720 nM.
In the case of `CS(=O)(=O)c1cccc(-c2cccc3c2nn2cc(-c4ccccc4)c(-c4ccc(C5(N)CCC5)cc4)nc32)c1` [Example 8.4, 1-{4-[7-(3-Mesylphenyl)-3-phenylpyrimido[1,2-b]indazol-2-yl]-phenyl}cyclobutylamine], the IC50 is reported as 17000 nM.
